The values below are quoted from earlier work in patent US20240156825A1, “USE OF SELECTIVE VEGFR2 AND FGFR1 INHIBITORS” (Fountain Therapeutics Inc., priority 2022, published 2024).

Each structure is given as a SMILES string. Where two headings read alike, the source gives them in different places.

The subject of the series is any gene target. The conditions noted are these: read-out: Min IC50_μM, cited from earlier work.
The mark [1] stands for this setting: next lowest IC50 value to any gene target.
[2] abbreviates: lowest reported IC50 to any gene target.
The mark [3] stands for this setting: Table 2, lowest reported IC50 to any gene target.
Setting [4] is: next lowest IC50 value to any gene target, Table 3.

Turning to `CCN(Cc1ccccc1)c1nc(O)nc(Nc2ccc3ncsc3c2)n1` [compound 135509841], the IC50 under setting [1] is 400 nM.

For the compound `COc1cc(OC)cc(N(CCN2CCN(C(=O)C3CC3)CC2)c2ccc3ncc(-c4cnn(C)c4)nc3c2)c1` [compound 89447346], the IC50 under setting [2] is 7.76 nM.

Regarding `COc1cc2nccc(Oc3ccc4c(C(N)=O)cccc4c3)c2cc1C(N)=O` [compound 11211389], under setting [1], the IC50 was 390 nM.

Take `Cc1cccc(NC(=O)Nc2ccc(-c3csc4ncnc(N)c34)cc2)c1` [compound 6539985]: the IC50 under setting [1] was 2 nM.

Turning to `COc1cc(OC)cc(N(CCCN2CCCC2)c2ccc3ncc(-c4cnn(CCO)c4)nc3c2)c1` [compound 134144550], under setting [3], the IC50 was 1.91 nM.

For `COc1cc(OC)cc(N(CC#Cc2cnccn2)c2ccc3ncc(-c4cnn(C)c4)nc3c2)c1` [compound 89447472], the IC50 under setting [2] is 17.8 nM.

Take `COc1cc(F)cc(N(CCCN2CCCC2)c2ccc3ncc(-c4cn[nH]c4)nc3c2)c1` [compound 134140310]: the IC50 under setting [3] is 1.86 nM.

For `COc1cc(OC)cc(N(CCN2CCCCC2C)c2ccc3ncc(-c4cnn(C)c4)nc3c2)c1` (stereo not drawn) [compound 134146514], the IC50 under setting [3] was 2.51 nM.

For the compound `COc1ccc2c(Oc3ccc4c(C(N)=O)cccc4c3)ccnc2c1` [compound 24823095], under setting [1], the IC50 is 130 nM.

Turning to `COc1cc(OC)cc(N(CC#Cc2cc(C)ccn2)c2ccc3ncc(-c4cnn(C)c4)nc3c2)c1` [compound 67466880], under setting [2], the IC50 was 9.33 nM.

For the compound `COc1cc(OC)cc(N(CCN2CCC(N(C)C)CC2)c2ccc3ncc(-c4cnn(C)c4)nc3c2)c1` [compound 68209057], the IC50 under setting [2] was 5.13 nM.

As for `COc1cc(OC)cc(N(CCNCCO)c2ccc3ncc(-c4cnn(C)c4)nc3c2)c1` [compound 68209464], the IC50 under setting [3] was 2.24 nM.

As to `c1ccc(-c2cnc3cncc(Nc4ccc(N5CCCCC5)cc4)c3n2)cc1` [compound 57332840], the IC50 under setting [1] was 2020 nM.

As to `COc1cc(F)cc(N(CCNC(C)C)c2ccc3ncc(-c4cn[nH]c4)nc3c2)c1` [compound 134153940], under setting [3], the IC50 is 2.09 nM.

Regarding `COc1cc(OC)cc(-c2cc3cnc(NCCCCCN4CCOCC4)cc3nc2NC(=O)NC(C)(C)C)c1` [compound 5330134], the IC50 under setting [2] was 0.5 nM.

As for `COc1cccc(N(CCNC(C)C)c2ccc3ncc(-c4cnn(C)c4)nc3c2)c1` [compound 134138612], the IC50 under setting [2] is 7.24 nM.

Turning to `O=C(NC1CCCCC1)c1cc2c(-c3ccccc3)n[nH]c2s1` [compound 44406074], under setting [1], the IC50 was 11000 nM.

For `COC(=O)c1ccc2c(C(=Nc3ccc(N4CCC(CN5CCN(C)CC5)C4=O)cc3)c3ccccc3)c(O)[nH]c2c1` (stereo not drawn) [compound 136299423], the IC50 under setting [1] was 45 nM.

As to `COc1cc(OC)cc(N(CCCN2CCC[C@H]2C)c2ccc3ncc(-c4cnn(C)c4)nc3c2)c1` [compound 134146811], under setting [3], the IC50 was 2.14 nM.

In the case of `COc1cc(OC)cc(N(CCNC(C)C)c2ccc3ncc(-c4cn[nH]c4)nc3c2)c1` [compound 134148952], the IC50 under setting [3] is 3.39 nM.

`COc1cc(OC)cc(-c2cc3cnc(N)nc3n(C)c2=O)c1` [compound 44294299]: under setting [2], the IC50 was 126 nM.

As for `COc1cc(OC)cc(N(CCNCC2CC2)c2ccc3ncc(-c4cnn(C)c4)nc3c2)c1` [compound 68208778], the IC50 under setting [3] was 3.02 nM.

Turning to `COc1cc(CCc2cc(NC(=O)c3ccc(N4C[C@@H](C)N[C@@H](C)C4)cc3)n[nH]2)cc(OC)c1` [compound 51039095], under setting [3], the IC50 is 0.4 nM.

Turning to `COc1cc(OC)cc(N(CCN2CCC(C(C)(C)O)CC2)c2ccc3ncc(-c4cnn(C)c4)nc3c2)c1` [compound 68209085], the IC50 under setting [2] was 3.89 nM.

In the case of `CNC(=O)c1cc(Oc2ccc(NC(=O)Nc3ccc(Cl)c(C(F)(F)F)c3)cc2)ccn1` [compound 216239], under setting [1], the IC50 was 0.2 nM.

`COc1cc(OC)cc(N(Cc2ccccc2Cl)c2ccc3ncc(-c4cnn(C)c4)nc3c2)c1` [compound 68208812]: the IC50 under setting [3] was 61.7 nM.

On to `COc1ccc(OC)c(N(CCNC(C)C)c2ccc3ncc(-c4cnn(C)c4)nc3c2)c1` [compound 54591211], for which the IC50 under setting [3] was 151 nM.

In the case of `COc1cc(OC)cc(N(Cc2ncccn2)c2ccc3ncc(-c4cnn(C)c4)nc3c2)c1` [compound 68208969], under setting [3], the IC50 is 8.13 nM.

On to `COc1cc(OC)cc(N(CCCN2CCC(N3C[C@@H](C)O[C@@H](C)C3)C2)c2ccc3ncc(-c4cnn(C)c4)nc3c2)c1` (stereo partly drawn) [compound 134155786], for which the IC50 under setting [3] was 4.57 nM.

As for `COc1cc(OC)cc(N(CC#CC2(O)CCNCC2)c2ccc3ncc(-c4cnn(C)c4)nc3c2)c1` [compound 89447547], the IC50 under setting [2] was 7.08 nM.

Consider `CNC[C@H](O)CN(c1cc(OC)cc(OC)c1)c1ccc2ncc(-c3cnn(C)c3)nc2c1` [compound 68209125], for which the IC50 under setting [2] was 1.78 nM.

For `COc1ccc(OC)c(N(CCCN2CCCC2)c2ccc3ncc(-c4cnn(C)c4)nc3c2)c1` [compound 134157453], the IC50 under setting [2] was 38 nM.

Consider `CCN(CC)CCN(c1cc(OC)cc(OC)c1)c1ccc2ncc(-c3cnn(C)c3)nc2c1` [compound 68208850], for which, under setting [3], the IC50 was 3.02 nM.

As for `COc1cc(OC)cc(N(CCCN2CCC(N)C2)c2ccc3ncc(-c4cnn(C)c4)nc3c2)c1` (stereo not drawn) [compound 68209028], the IC50 under setting [3] was 1.41 nM.

Regarding `COc1cc(OC)cc(N(CCNC(C)C)c2ccc3ncc(-c4cnn(C)c4)nc3c2)c1` [compound 118014709], under setting [3], the IC50 is 2.29 nM.

`COc1cc(OC)cc(N(CCCN2C[C@@H](C)O[C@@H](C)C2)c2ccc3ncc(-c4cnn(C)c4)nc3c2)c1` [compound 89447204]: the IC50 under setting [3] was 3.55 nM.

On to `COc1cc2c(Nc3ccc(Br)cc3F)ncnc2cc1OCC1CCN(C)CC1` [compound 3081361], for which the IC50 under setting [1] is 11 nM.

As for `COc1cc(OC)cc(N(CC#Cc2cccc(N)n2)c2ccc3ncc(-c4cnn(C)c4)nc3c2)c1` [compound 67466417], the IC50 under setting [3] is 42.7 nM.

On to `O=C(Nc1ccc(Cl)cc1)c1ccccc1NCc1ccncc1` [compound 9797919], for which the IC50 under setting [1] was 180 nM.

As for `COc1cc(OC)cc(N(CCCc2cc(C)ccn2)c2ccc3ncc(-c4cnn(C)c4)nc3c2)c1` [compound 68208924], the IC50 under setting [2] is 10.7 nM.

Take `COc1cc2c(Nc3ccc(Cl)c(Cl)c3F)ncnc2cc1OC[C@@H]1CN2CCCC[C@H]2C(=O)N1` [compound 57802612]: the IC50 under setting [4] was 50 nM.

Regarding `Oc1ccc(-c2cnn3cc(-c4ccc(OCCN5CCOCC5)cc4)cnc23)cc1O` [compound 52944268], the IC50 under setting [4] was 1 nM.

Regarding `COc1cc(OC)cc(N(CCNC(C)C)c2ccc3ncc(-c4cnn(C)c4)nc3c2)c1` [compound 89447047], the IC50 under setting [3] was 1.74 nM.

As for `CONC(=O)c1cc(Nc2ncnn3cc(-c4nnc(C(C)C)o4)c(C(C)C)c23)c(F)cc1F` [compound 11442803], the IC50 under setting [2] was 1 nM.

For the compound `Cc1n[nH]c2sc(C(N)=O)c(NC(=O)c3ccccc3Cl)c12` [compound 44405999], the IC50 under setting [1] is 9000 nM.

Take `O=C(NCc1ccccc1)c1cc2c(-c3ccccc3)n[nH]c2s1` [compound 11359538]: under setting [1], the IC50 is 2000 nM.

As for `CNC(=O)c1cccc2cc(Oc3ccnc4cc(OC)c(OC)cc34)ccc12` [compound 11749561], under setting [1], the IC50 is 110 nM.

`COc1cc(OC)cc(N(CCN2CCC(CCO)CC2)c2ccc3ncc(-c4cnn(C)c4)nc3c2)c1` [compound 68208907]: the IC50 under setting [3] is 2.88 nM.

`COc1ccc(-c2ccc(NC(=O)Nc3cc(C)ccc3F)cc2)c2c(N)noc12` [compound 11429654]: the IC50 under setting [1] is 24 nM.

Regarding `CC(C)n1nc(-c2ccc3cc(O)ccc3c2)c2c(N)ncnc21` [compound 135947979], under setting [1], the IC50 was 20 nM.

Turning to `COc1cc(OC)cc(N(CCN2CCC(N)C2)c2ccc3ncc(-c4cnn(C)c4)nc3c2)c1` (stereo not drawn) [compound 134157853], the IC50 under setting [3] was 1.99 nM.

`COc1cc(OC)cc(N(CCCN2[C@H](C)CC[C@@H]2C)c2ccc3ncc(-c4cnn(C)c4)nc3c2)c1` [compound 134135888]: the IC50 under setting [3] is 2.51 nM.

Consider `COc1ccc(-c2ccc(NC(=O)Nc3cccc(C(F)(F)F)c3)cc2)c2c(N)noc12` [compound 11374110], for which, under setting [1], the IC50 was 16 nM.

`CNCCN(c1cc(OC)cc(OC)c1)c1ccc2ncc(-c3cnn(CC(=O)NC)c3)nc2c1` [compound 68208748]: under setting [3], the IC50 was 2.57 nM.

On to `Cc1n[nH]c2sc(C(=O)NCc3ccccc3)cc12` [compound 44405941], for which the IC50 under setting [1] was 16000 nM.

On to `COc1cc(OC)c(Cl)c(N(CCNC(C)C)c2ccc3ncc(-c4cnn(C)c4)nc3c2)c1Cl` [compound 88888615], for which the IC50 under setting [3] is 9.12 nM.

`COc1cc(OC)cc(N(CCNC(C)C)c2ccc3ncc(-c4c(C)nn(C)c4C)nc3c2)c1` [compound 134138098]: under setting [3], the IC50 was 10.7 nM.

In the case of `COc1cc(OC)c(C)c(N(CCNC(C)C)c2ccc3ncc(-c4cnn(C)c4)nc3c2)c1` [compound 134147170], under setting [3], the IC50 is 6.46 nM.

For `COc1cc(OC)c(C)c(N(CCCN2CCCC2)c2ccc3ncc(-c4cnn(C)c4)nc3c2)c1` [compound 134145340], the IC50 under setting [3] is 3.55 nM.

`Clc1ccc(Nc2nnc(Cc3ccncc3)c3ccccc23)cc1` [compound 151194]: the IC50 under setting [1] is 54 nM.

With `COc1cc(OC)cc(N(CCN2CCCC2)c2ccc3ncc(-c4cnn(C)c4)nc3c2)c1` [compound 134156523], the IC50 under setting [3] was 1.78 nM.

For `C[C@@H](Nc1ncnc2[nH]c(-c3ccc(CNCCCCCCCC(=O)NO)cc3)cc12)c1ccccc1` [compound 24900644], the IC50 under setting [1] is 100 nM.

Regarding `COc1cc(OC)cc(N(CC#Cc2cccc(CO)n2)c2ccc3ncc(-c4cnn(C)c4)nc3c2)c1` [compound 68208920], the IC50 under setting [3] was 46.8 nM.

In the case of `COc1cc(OC)cc(N(CCN2CCC[C@H]2C)c2ccc3ncc(-c4cnn(C)c4)nc3c2)c1` [compound 134145938], under setting [3], the IC50 is 1.99 nM.

For the compound `COc1cc2ncnc(Nc3ccc(Cl)cc3F)c2cc1OC` [compound 5329006], under setting [1], the IC50 is 1000 nM.

Take `COc1cc(OC)cc(N(CCCN)c2ccc3ncc(-c4cn[nH]c4)nc3c2)c1` [compound 68208813]: under setting [3], the IC50 was 1.18 nM.
